Experimental data published in patent US9034918B2, “Composition including at least one trans-cinnamaldehyde and the use thereof in the treatment of bacterial infections, specifically in the treatment of nosocomial infections” (SEPTEOS, priority 2009, dated 2015).

Columns and labels:
Test in all cases: Antibiogram by diffusion technique (CA-SFM 2008)
Format in all cases: cell-based
[1] = test system: E. coli strain 8155; set-up: D: unit not given here
From the text: (§1) Three clinical categories were selected for interpretation of the in vitro sensitivity tests: sensitive (S), resistant (R) and intermediate (I). • The strains categorized S are those for which the probability of therapeutic success is high in the case of treatment by systemic route with the dosing schedule recommended in the summary of product characteristics (SPC) prepared by the French Health Products Safety Agency (AFSSAPS). • The strains categorized R are those for which there is a high probability of therapeutic failure regardless of treatment type and antibiotic dose. • The strains categorized I are those for which therapeutic success cannot be predicted. These strains form a heterogeneous group for which the results obtained in vitro are not predictive of therapeutic success. […] The intermediate category is also a buffer zone which takes into account technical and biological uncertainties.
(§2) The sensitivity of strains to antibiotics was determined by a diffusion technique according to the 2008 recommendations by the Antibiogram Committee of the French Microbiology Society (CA-SFM).
(§3) In terms of critical concentrations and diameters, strains are categorized as follows: • sensitive (S): strains for which the MIC of the antibiotic tested is less than or equal to the lower critical concentration c, which is equivalent to a diameter greater than or equal to the critical diameter D; • resistant (R): strains for which the MIC of the antibiotic tested are greater than the upper critical concentration C, corresponding to a diameter less than the critical diameter d; • intermediate sensitivity (I): strains for which the MIC of the antibiotic tested and the corresponding diameter are between the two critical concentrations and the two critical diameters.
(§4) The tests were carried out on Mueller-Hinton agar. An inoculum adjusted to 0.5 on the McFarland scale is then diluted to 1/100. Petri dishes are inoculated by swabbing. The dishes are read after 24 hours of incubation at 37° C.
(§5) The raw results are then interpreted according to the interpretative reading rules of the CA-SFM.

[2] = test system: Pseudomonas aeruginosa strain 8132; set-up: D: unit not given here
From the text: as §1, §2, §3, §4, §5

[3] = test system: golden staph (S. aureus) strain 8240; set-up: D: unit not given here
From the text: as §1, §2, §3, §4, §5

[4] = test system: golden staph (S. aureus) strain 8147; set-up: D: unit not given here
From the text: as §1, §2, §3, §4, §5

[5] = test system: E. coli strain 8156; set-up: D: unit not given here
From the text: as §1, §2, §3, §4, §5

[6] = test system: Pseudomonas aeruginosa strain 8134; set-up: D: unit not given here
From the text: as §1, §2, §3, §4, §5

[7] = test system: golden staph (S. aureus) strain 8239; set-up: D: unit not given here
From the text: as §1, §2, §3, §4, §5

[8] = test system: Pseudomonas aeruginosa strain 8128; set-up: D: unit not given here
From the text: as §1, §2, §3, §4, §5

[9] = test system: Pseudomonas aeruginosa strain 8129; set-up: D: unit not given here
From the text: as §1, §2, §3, §4, §5

[10] = test system: E. coli strain 8157; set-up: D: unit not given here
From the text: as §1, §2, §3, §4, §5

[11] = test system: E. coli strain 8154; set-up: D: unit not given here
From the text: as §1, §2, §3, §4, §5

[12] = test system: strain 9007, Pseudomonas aeruginosa, with VIM-2 carbapenemase
From the text: as §1, §2, §3, §4, §5

[13] = test system: strain 9010, Acinetobacter baumannii, with VEB-1 ESBL
From the text: as §1, §2, §3, §4, §5

[14] = test system: E. coli strain 9003
From the text: as §1, §2, §3, §4, §5

[15] = test system: Enterobacter aerogenes (9004); settings: strain 9004
From the text: as §1, §2, §3, §4, §5

[16] = test system: E. coli ATCC 25922; set-up: Diameter (D): unit not given here
From the text: Three clinical categories were selected for interpretation of the in vitro sensitivity tests: sensitive (S), resistant (R) and intermediate (I). • The strains categorized S are those for which the probability of therapeutic success is high in the case of treatment by systemic route with the dosing schedule recommended in the summary of product characteristics (SPC) prepared by the French Health Products Safety Agency ([…]). • The strains categorized R are those for which there is a high probability of therapeutic failure regardless of treatment type and antibiotic dose. • The strains categorized I are those for which therapeutic success cannot be predicted. These strains form a heterogeneous group for which the results obtained in vitro are not predictive of therapeutic success. […] The intermediate category is also a buffer zone which takes into account technical and biological uncertainties. The sensitivity of strains to antibiotics was determined by a diffusion technique according to the 2008 recommendations by the Antibiogram Committee of the French Microbiology Society (CA-SFM). In terms of critical concentrations and diameters, strains are categorized as follows: • sensitive (S): strains for which the MIC of the antibiotic tested is less than or equal to the lower critical concentration c, which is equivalent to a diameter greater than or equal to the critical diameter D; • resistant (R): strains for which the MIC of the antibiotic tested are greater than the upper critical concentration C, corresponding to a diameter less than the critical diameter d; • intermediate sensitivity (I): strains for which the MIC of the antibiotic tested and the corresponding diameter are between the two critical concentrations and the two critical diameters. The tests were carried out on Mueller-Hinton agar. An inoculum adjusted to 0.5 on the McFarland scale is then diluted to 1/100. Petri dishes are inoculated by swabbing. The dishes are read after 24 hours of incubation at 37° C. The raw results are then interpreted according to the interpretative reading rules of the CA-SFM. Two examples: all strains of methicillin-resistant Staphylococcus are resistant to all beta-lactams, and the same is true for gentamicin-resistant strains; golden staph is necessarily resistant to kanamycin (and amikacin) and tobramycin. The quality of the diffusion method is controlled using E. coli strain ATCC 25922.

[17] = test system: Enterococcus strain 8153; set-up: Diameter: unit not given here
From the text: as §1, §2, §3, §4, §5

[18] = test system: Enterococcus strain 8152; set-up: Diameter: unit not given here
From the text: as §1, §2, §3, §4, §5

Row | Molecule | Cat. [1] | D [1] | Cat. [2] | D [2] | Cat. [5] | D [5] | Cat. [6] | D [6] | Cat. [8] | D [8] | Cat. [9] | D [9] | Cat. [10] | D [10] | Cat. [11] | D [11] | Category [12] | Category [13] | Category [14] | Category [15] | further results
1 | CC(=O)OCC1=C(C(=O)O)N2C(=O)[C@@H](NC(=O)Cc3cccs3)[C@H]2SC1 [Cefalotin] | S | 21 | R | 0 | S | 20 | R | 0 | R | 0 | R | 0 | S | 19 | S | 21 | R | R | R | R | Cat. [3]: R; D [3]: 17; Cat. [4]: R; D [4]: 17; Cat. [7]: R; D [7]: 17; Category (Cat.) [16]: S; Diameter (D) [16]: 20
2 | NC[C@H]1O[C@H](O[C@H]2[C@H](O)[C@@H](O[C@H]3O[C@H](CO)[C@@H](O)[C@H](N)[C@H]3O)[C@H](N)C[C@@H]2N)[C@H](N)C[C@@H]1O [Tobramycin] | S | 24 | R | 0 | S | 22 | R | 11 | S | 30 | S | 27 | S | 24 | S | 24 | S | R | S | R | Cat. [3]: R; D [3]: 0; Cat. [4]: S; D [4]: 30; Cat. [7]: S; D [7]: 31; Category (Cat.) [16]: S; Diameter (D) [16]: 24; Category [17]: R; Diameter [17]: 14; Category [18]: R; Diameter [18]: 11
3 | Amoxicillin + clavulanic acid | S | 24 | R | 0 | S | 22 | R | 0 | R | 0 | R | 0 | S | 30 | S | 14 | R | R | S | R | Cat. [3]: R; D [3]: 25; Cat. [4]: R; D [4]: 25; Cat. [7]: R; D [7]: 27; Category (Cat.) [16]: S; Diameter (D) [16]: 22; Category [17]: S; Diameter [17]: 32; Category [18]: S; Diameter [18]: 30
4 | CC1(C)S[C@@H]2[C@H](NC(=O)[C@H](N)c3ccc(O)cc3)C(=O)N2[C@H]1C(=O)O [Amoxicillin] | S | 24 | R | 0 | S | 25 | R | 0 | R | 0 | R | 0 | R | 0 | R | 0 | R | R | R | R | Cat. [3]: R; D [3]: 17; Cat. [4]: R; D [4]: 26; Cat. [7]: R; D [7]: 12; Category (Cat.) [16]: S; Diameter (D) [16]: 23; Category [17]: S; Diameter [17]: 33; Category [18]: S; Diameter [18]: 32
5 | CC1(C)S[C@@H]2[C@H](NC(=O)[C@H](C(=O)O)c3ccsc3)C(=O)N2[C@H]1C(=O)O [Ticarcillin] | S | 31 | R | 12 | S | 28 | S | 23 | I | 21 | R | 13 | R | 0 | R | 0 | R | R | R | R | Category (Cat.) [16]: S; Diameter (D) [16]: 25
